Measured values taken from article PMC11694061 (Cancer Research, 2024).
Read-outs that look alike come from different tables or passages of the source.

What was measured:
K562 cells = assay: Proliferation, K562; format: cell-based, human; settings: Table S1 screening, read-out: IC50 (cell proliferation inhibition in K562 cells)
Method: Cells were inoculated onto 96-well plates and treated with compounds in serial dilutions for 3 or 5 days. […] The cell viability of primary patient samples was tested using the CellTiter-Glo Luminescent Assay kit (G7573, Promega) according to the manufacturer’s instructions. […] The optical density (OD) values were obtained using a SPARK microplate reader (Tecan). IC50 was calculated using GraphPad Prism 8.0.2 (nonlinear regression analysis with four parameters). Drug synergy was evaluated with combination index (CI) values using CalcuSyn Demo Version 2.0 software. CI > 1 indicates antagonism, CI < 1 indicates synergy, and CI = 1 indicates additivity.

SOS1 in K562 cells = target: T1, SOS1 in K562 cells (Homo sapiens, UniProt Q07889); assay: SOS1 degradation in K562 cells (Western blot); format: cell-based
T1 construct: endogenous in cells; host or cells: K562
T1 sequence (Q07889 1-1333): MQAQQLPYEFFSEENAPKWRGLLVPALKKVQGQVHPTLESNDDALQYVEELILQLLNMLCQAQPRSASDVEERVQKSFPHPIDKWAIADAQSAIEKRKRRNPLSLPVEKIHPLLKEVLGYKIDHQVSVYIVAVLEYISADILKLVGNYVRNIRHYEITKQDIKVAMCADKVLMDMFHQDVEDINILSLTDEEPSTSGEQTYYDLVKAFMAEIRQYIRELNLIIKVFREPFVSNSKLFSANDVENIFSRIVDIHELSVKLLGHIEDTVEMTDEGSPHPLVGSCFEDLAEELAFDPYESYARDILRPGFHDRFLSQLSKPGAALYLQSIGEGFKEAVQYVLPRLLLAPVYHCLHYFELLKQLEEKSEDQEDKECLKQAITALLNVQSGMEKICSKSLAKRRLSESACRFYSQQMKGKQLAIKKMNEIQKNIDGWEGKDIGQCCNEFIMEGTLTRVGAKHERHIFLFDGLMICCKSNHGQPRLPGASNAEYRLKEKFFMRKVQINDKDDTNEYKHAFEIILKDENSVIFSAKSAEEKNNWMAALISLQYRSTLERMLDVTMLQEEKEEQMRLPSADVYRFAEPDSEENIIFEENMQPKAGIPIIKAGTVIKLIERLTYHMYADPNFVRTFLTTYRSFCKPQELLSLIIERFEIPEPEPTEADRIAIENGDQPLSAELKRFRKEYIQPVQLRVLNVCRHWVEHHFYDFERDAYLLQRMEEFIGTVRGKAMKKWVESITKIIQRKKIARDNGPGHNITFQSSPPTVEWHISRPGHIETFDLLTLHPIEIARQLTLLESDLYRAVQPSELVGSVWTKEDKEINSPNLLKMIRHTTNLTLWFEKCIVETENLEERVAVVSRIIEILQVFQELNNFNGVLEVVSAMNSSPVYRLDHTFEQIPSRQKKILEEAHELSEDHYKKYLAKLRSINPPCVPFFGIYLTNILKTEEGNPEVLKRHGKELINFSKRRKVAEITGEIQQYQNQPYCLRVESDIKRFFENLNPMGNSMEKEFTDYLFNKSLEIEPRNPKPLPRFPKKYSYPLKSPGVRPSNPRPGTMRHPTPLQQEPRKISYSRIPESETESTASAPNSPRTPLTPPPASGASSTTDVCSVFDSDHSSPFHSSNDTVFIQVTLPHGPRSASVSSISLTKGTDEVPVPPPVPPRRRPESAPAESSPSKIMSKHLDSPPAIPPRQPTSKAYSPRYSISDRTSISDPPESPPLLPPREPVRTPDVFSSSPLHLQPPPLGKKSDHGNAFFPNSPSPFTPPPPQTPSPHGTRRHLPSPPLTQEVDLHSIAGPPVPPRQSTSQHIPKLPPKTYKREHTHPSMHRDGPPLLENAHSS
Source text: After treatment, the cells were harvested with SDS lysis buffer, and SDS-PAGE gels were used to split the proteins in the lysate solutions. […] AB_2758039).

`COc1cc2nc(C)nc(N[C@H](C)c3cc(N)cc(C(F)(F)F)c3)c2cc1O[C@H]1CCN(CCCSc2cccc3c2CN(C2CCC(=O)NC2=O)C3=O)C1` (stereo partly drawn) [SIAIS561084] was tested, and the IC50 (K562 cells) was 1.31 ± 0.176 µM, the “Degradation of SOS1 (%)” value (SOS1 in K562 cells; 0.1 μM) was 7.3 ± 8.5% and the “Degradation of SOS1 (%)” value (SOS1 in K562 cells; 1.0 μM) was -19.5 ± 2.2%.

`COc1cc2nc(C)nc(N[C@H](C)c3cc(N)cc(C(F)(F)F)c3)c2cc1O[C@H]1CCN(C(=O)CCCCSc2cccc3c2CN(C2CCC(=O)NC2=O)C3=O)C1` (stereo partly drawn) [SIAIS561086] showed an IC50 (K562 cells; Homo sapiens, K562) of 7.69 ± 0.0912 µM, a percent SOS1 degradation at 0.1 µM (SOS1 in K562 cells; 0.1 μM) of 22.7 ± 1.7% and a percent SOS1 degradation at 1 µM (SOS1 in K562 cells; 1.0 μM) of 33.5 ± 4.7%.

For `COc1cc2nc(C)nc(N[C@H](C)c3cc(N)cc(C(F)(F)F)c3)c2cc1O[C@H]1CCN(C(=O)CCCCCSc2cccc3c2CN(C2CCC(=O)NC2=O)C3=O)C1` (stereo partly drawn) [SIAIS561087], the IC50 (K562 cells; Homo sapiens, K562) was 6.51 ± 0.514 µM, the percent SOS1 degradation at 0.1 µM (SOS1 in K562 cells; 0.1 μM) was 53.5 ± 0.6% and the percent SOS1 degradation at 1 µM (SOS1 in K562 cells; 1.0 μM) was 39.9 ± 0.9%.

In the case of `COc1cc2nc(C)nc(N[C@H](C)c3cc(N)cc(C(F)(F)F)c3)c2cc1O[C@H]1CCN(CCSc2cccc3c2CN(C2CCC(=O)NC2=O)C3=O)C1` (stereo partly drawn) [SIAIS561091], the IC50 (K562 cells) is reported as 1.2 ± 0.0658 µM, the “Degradation of SOS1 (%)” value (SOS1 in K562 cells; 0.1 μM) is reported as 36.2 ± 5.7% and the “Degradation of SOS1 (%)” value (SOS1 in K562 cells; 1.0 μM) is reported as 27.0 ± 7.5%.

Work on `COc1cc2nc(C)nc(N[C@H](C)c3cc(N)cc(C(F)(F)F)c3)c2cc1O[C@H]1CCN(C(=O)CSc2cccc3c2CN(C2CCC(=O)NC2=O)C3=O)C1` (stereo partly drawn) [SIAIS561092] yielded an IC50 (K562 cells; Homo sapiens, K562) of 7.29 ± 1.01 µM, a percent SOS1 degradation at 0.1 µM (SOS1 in K562 cells; 0.1 μM) of -26.5 ± 8.3% and a percent SOS1 degradation at 1 µM (SOS1 in K562 cells; 1.0 μM) of 8.1 ± 2.3%.

`COc1cc2nc(C)nc(N[C@H](C)c3cc(N)cc(C(F)(F)F)c3)c2cc1O[C@H]1CCN(C(=O)CCSc2cccc3c2CN(C2CCC(=O)NC2=O)C3=O)C1` (stereo partly drawn) [SIAIS561093] gave an IC50 (K562 cells; Homo sapiens, K562) of 16.4 ± 2.44 µM, a percent SOS1 degradation at 0.1 µM (SOS1 in K562 cells; 0.1 μM) of 19.9 ± 1.8% and a percent SOS1 degradation at 1 µM (SOS1 in K562 cells; 1.0 μM) of 24.7 ± 4.4%.

Work on `COc1cc2nc(C)nc(N[C@H](C)c3cc(N)cc(C(F)(F)F)c3)c2cc1O[C@H]1CCN(C(=O)CCCSc2cccc3c2CN(C2CCC(=O)NC2=O)C3=O)C1` (stereo partly drawn) [SIAIS561094] yielded an IC50 (K562 cells; Homo sapiens, K562) of 7.13 ± 0.224 µM, a percent SOS1 degradation at 0.1 µM (SOS1 in K562 cells; 0.1 μM) of 32.9 ± 0.4% and a percent SOS1 degradation at 1 µM (SOS1 in K562 cells; 1.0 μM) of 35.3 ± 0.6%.

Work on `COc1cc2nc(C)nc(N[C@H](C)c3cc(N)cc(C(F)(F)F)c3)c2cc1O[C@H]1CCN(C(=O)CCCCCCSc2cccc3c2CN(C2CCC(=O)NC2=O)C3=O)C1` (stereo partly drawn) [SIAIS561095] yielded an IC50 (K562 cells; Homo sapiens, K562) of 5.23 ± 1.39 µM, a percent SOS1 degradation at 0.1 µM (SOS1 in K562 cells; 0.1 μM) of 26.7 ± 3% and a percent SOS1 degradation at 1 µM (SOS1 in K562 cells; 1.0 μM) of 3.9 ± 4.7%.

Work on `COc1cc2nc(C)nc(N[C@H](C)c3cc(N)cc(C(F)(F)F)c3)c2cc1O[C@H]1CCN(C(=O)CCCCCCCSc2cccc3c2CN(C2CCC(=O)NC2=O)C3=O)C1` (stereo partly drawn) [SIAIS561096] yielded an IC50 (K562 cells; Homo sapiens, K562) of 1.55 ± 0.0714 µM, a percent SOS1 degradation at 0.1 µM (SOS1 in K562 cells; 0.1 μM) of 57.2 ± 0.7% and a percent SOS1 degradation at 1 µM (SOS1 in K562 cells; 1.0 μM) of 49.7 ± 0.9%.

Work on `COc1cc2nc(C)nc(N[C@H](C)c3cc(N)cc(C(F)(F)F)c3)c2cc1O[C@H]1CCN(C(=O)CCCCCCCCCSc2cccc3c2CN(C2CCC(=O)NC2=O)C3=O)C1` (stereo partly drawn) [SIAIS561097] yielded an IC50 (K562 cells; Homo sapiens, K562) of 15.1 ± 2.04 µM, a percent SOS1 degradation at 0.1 µM (SOS1 in K562 cells; 0.1 μM) of -10.2 ± 5.5% and a percent SOS1 degradation at 1 µM (SOS1 in K562 cells; 1.0 μM) of -20.9 ± 9%.

Work on `COc1cc2nc(C)nc(N[C@H](C)c3cc(N)cc(C(F)(F)F)c3)c2cc1O[C@H]1CCN(C(=O)CCCCCCCCCCSc2cccc3c2CN(C2CCC(=O)NC2=O)C3=O)C1` (stereo partly drawn) [SIAIS561098] yielded an IC50 (K562 cells; Homo sapiens, K562) of 11.5 ± 0.515 µM, a percent SOS1 degradation at 0.1 µM (SOS1 in K562 cells; 0.1 μM) of 1.1 ± 1% and a percent SOS1 degradation at 1 µM (SOS1 in K562 cells; 1.0 μM) of 17 ± 2.2%.

Compound `COc1cc2nc(C)nc(N[C@H](C)c3cc(N)cc(C(F)(F)F)c3)c2cc1OC1CCN(C(=O)CSc2cccc3c2CN(C2CCC(=O)NC2=O)C3=O)CC1` (stereo partly drawn) [SIAIS561131] has an IC50 (K562 cells; Homo sapiens, K562) of 17.8 ± 3.9 µM, a percent SOS1 degradation at 0.1 µM (SOS1 in K562 cells; 0.1 μM) of 12.3 ± 6.5% and a percent SOS1 degradation at 1 µM (SOS1 in K562 cells; 1.0 μM) of -2.3 ± 9.5%.

In the case of `COc1cc2nc(C)nc(N[C@H](C)c3cc(N)cc(C(F)(F)F)c3)c2cc1OC1CCN(C(=O)CCSc2cccc3c2CN(C2CCC(=O)NC2=O)C3=O)CC1` (stereo partly drawn) [SIAIS561132], the IC50 (K562 cells; Homo sapiens, K562) is reported as 0.112 ± 0.0042 µM, the percent SOS1 degradation at 0.1 µM (SOS1 in K562 cells; 0.1 μM) is reported as -14.7 ± 10.2% and the percent SOS1 degradation at 1 µM (SOS1 in K562 cells; 1.0 μM) is reported as -3.8 ± 4.2%.
